The text below walks through data of publication PMC6511062, “Preclinical candidate for the treatment of visceral leishmaniasis that acts through proteasome inhibition” (Proceedings of the National Academy of Sciences of the …, 2019).

Data set [1] can be described thus: CAD (charged aerosol detector) solubility.
The subject of data set [2] is L. donovani intramacrophage amastigotes. Kind of data set: L. donovani intramacrophage assay (amastigotes in differentiated THP-1 cells). In kind it is cell-based, Leishmania donovani. To be noted: for EC50: Leishmania donovani. The method, then: (§1) T. cruzi4, Leishmania donovani axenic amastigote, cidal axenic amastigote and intra-
(§2) macrophage drug sensitivity assays were conducted as previously described5,6. […]
(§3) 5. Intrinsic clearance (CLint) […]
(§4) 6. Pharmacokinetic studies. […]

For the next data set, the system named is THP-1 cells. The data set is described as follows: Mammalian cell growth inhibition (THP-1). In kind it is cell-based. The settings on record: Homo sapiens. An excerpt:
We hypothesized that, in view of their structural similarity, 1 and 2 probably shared the same mechanism of action.

Data set [3] in a line: Intrinsic clearance in mouse liver microsomes. In kind it is in vitro ADME. The method, then:
page 13: 4. Parasite assays T. cruzi4, Leishmania donovani axenic amastigote, cidal axenic amastigote and intra- macrophage drug sensitivity assays were conducted as previously described5,6. a. […] Instead of a single readout at 72 h, multiple identical plates were used and read at different time points (24, 48, 72 h). Rate of kill curves showing the luminescence signal at each time point for each concentration were plotted. 5. […] The rate of intrinsic clearance (CLint) of each test compound was then calculated using the following calculation: CLint(mL/min/g liver) = k x V x Microsomal protein yield Where V (mL/mg protein) is the incubation volume/mg protein added and microsomal protein yield is taken as 52.5 mg protein/g liver. Verapamil (0.5 μM) was used as a positive control to confirm acceptable assay performance. 6. Pharmacokinetic studies. a. Mouse and dog PK Mouse pharmacokinetic studies were conducted in male CD-1 mice and male beagle dogs. 3 animals per group were used for each study performed. A dose of 3 mg/kg was administered intravenously, in a bolus form to mice and infused over a 30 min period to dogs. For all the intravenous studies compound were dissolved in 5% DMSO/20% kleptose in saline. A dose of 10 mg/kg was orally administered by gavage to the two species in a suspension of 1% methylcellulose to investigate oral pharmacokinetics. S13
For orientation: Liver microsomes are vesicles of endoplasmic reticulum, rich in cytochrome P450 enzymes.

In another data set the test system is Trypanosoma cruzi. Kind of data set: T. cruzi phenotypic screening assay. To be noted: phenotypic screen, read-out: EC50 against T. cruzi. In kind it is cell-based. The method, then:
as §1, §2, §3, §4

The test system of data set [4] is chymotrypsin-like activity of the L. donovani proteasome. The data set is described as follows: biochemical. More on the design: species or system Leishmania donovani. To be noted: lysates from RES II and WT parasites.
Protocol: An in vitro assay was developed that enabled the chymotrypsin-like activity and additional proteolytic activities associated with the proteasome to be directly monitored within proteasome-enriched parasite cell lysates. Likewise, human proteasome from two sources (i.e., commercially pure 26S and enriched proteasome fractions from THP-1 lysates) was tested using the same biochemical assays.
Proteasome enrichment by ultracentrifugation
The protocol described by Kisselev et al.34 was adapted to enrich the proteasomes present in L. donovani and THP1 crude extracts. L. donovani or THP1 cells were resuspended in sucrose buffer (50 mM Tris buffer pH 7.5, 5 mM Magnesium chloride, 1 mM EDTA, 50 mM NaCl, 250 mM sucrose, 2 mM ATP, 1 mM DTT) and lysed by nitrogen cavitation for 15 min (110 bars of 1500 psi). Lysates were centrifuged at 20,000g for 30 min at 4 °C and supernatants containing soluble protein were subjected to an ultracentrifugation step at 300,000g for 2h at 4 °C. The resulting proteasome-containing pellets were resuspended in sucrose buffer and left on ice for 30 min to complete solubilization. Samples were centrifuged for 10 min at 20,000 g to remove insoluble material. Proteins contained in supernatant (proteasome enriched fraction) were measured by Bradford.
Proteasome activity assays
Compounds were dispensed into black 384-well assay plates (Greiner) by acoustic dispensing (LabCyte ECHO). For potency determinations, eleven-point, one in three dilution curves were generated, with a top concentration of 100 µM. Three proteasome activities were measured using a commercially available indirect enzyme-based luminescent assay kit (Promega) with Suc-LLVY-aminoluciferin, Z-LRR-aminoluciferin and Z-nLPnLD-aminoluciferin used as substrates for chymotrypsin-like, trypsin-like and caspase-like activities, respectively. In addition to proteasome samples: L. donovani and THP1-enriched proteasomes, commercially available human purified 26S proteasome (Boston Biochem) was also assessed.
Data set [5] deals with Salmonella typhimurium TA1535, TA1537, TA98, TA100 and Escherichia coli WP2uvrA(pKM101). The data set is described as follows: Bacterial mutation screening assay (Ames test), overall outcome. The data set is classed as cell-based. The settings on record: presence and absence of S9-mix. The method, then: i. Bacterial Mutation (Ames) Assay
Compound 6 was tested in a bacterial mutation screening assay (Ames test) with Salmonella typhimurium TA1535, TA1537, TA98, TA100 and Escherichia coli WP2uvrA(pKM101) in the presence and absence of an exogenous mammalian oxidative metabolism system (S9-mix). The maximum concentration tested and […]
Compound 6a was tested in a bacterial mutation screening assay (Ames test) with […]
Compound 7a was tested in a bacterial mutation screening assay (Ames test) with […]
The bacterial mutation screening assay was a plate incorporation test carried out as previously described15 and according to current methodology. […]
(The Ames test detects mutagens through reverse mutation in bacteria.)

Data set [6] is described as follows: Solubility in fasted simulated intestinal fluid (FaSSIF). The settings on record: for FaSSIF solubility: fasted simulated intestinal fluid; for solubility: fassif.
Data set [7] has as its system L. donovani proteasome β subunits. The data set is described as follows: Activity-based probe (UbiQ-018) labelling of L. donovani proteasome. The settings on record: 100 µM. The data set is classed as binding, Leishmania donovani. The method, then:
m. Activity-Based Probe Labelling of THP1 and L. donovani proteasome
Proteasome enriched fractions from THP1 (20 µg), L. donovani (10 µg) and L. donovani […]
µM for 1 h. Proteasome enriched fractions were also incubated with DMSO as control.
For all proteasome labelling experiments, the active-site probe Me4BodipyFL-Ahx3Leu3VS (UbiQ-018) was used at final concentration of 500 nM in sucrose buffer (50 mM Tris buffer pH 7.5, 5 mM magnesium chloride, 1 mM EDTA, 50 mM NaCl, 250 mM sucrose, 2 mM ATP, 1 mM DTT). Proteasome enriched fractions treated with […]
DMSO or test compounds, were incubated with the probe for 2h at RT. Samples were then denatured by addition of Laemmli sample buffer, heated to 95°C for 10 min and separated by electrophoresis on a 15% SDS-PAGE acrylamide gel. Following separation, gels were scanned in the fluorescein channel of a ChemiDoc reader (λ excitation/emission = 480/530 nm). Fluorescent proteins were excised and MALDI– TOF analysis carried out by the FingerPrints Proteomics service at the University of […]
10. Measuring Proteolytic activity of Leishmania tarentolae Proteasome […]
pre-prepared as a 10 mM stocks in 100 % DMSO and then diluted 1 in 3, over 11 points, prior to dispense of 100 nl of each dilution series into black, low volume, 384-well microplates. Proteasome was prepared as a 0.5 µg/mL working solution in assay buffer (50 mM HEPES (pH 7.5), 150 mM NaCl, 5 mM MgCl2, 5% glycerol, 1 mM CHAPS) and 5 µL was added using a Multidrop Micro (Thermo Fisher Scientific) to all wells containing compound dilutions on the test microplates. The microplates were then centrifuged for 1 min at 1000 rpm and incubated for 15 mins at 25 °C, prior to an assay initiating addition of 5 µl of fluorogenic substrate, which had been prepared as a 1 µM […]
The assay microplates were then centrifuged for 10 secs before using a Tecan M1000 Pro to monitor the increase of fluorescent intensity at 25 °C by excitation of the liberated Rhodamine110 at 485 nm and emission at 535 nm every 125 secs for 20 cycles. […]
calculate initial rates of reactions for all assay wells on the microplate by fitting to a linear regression model. The initial rates of reaction for all compound concentrations tested were normalised to the initial rates determined for 16 replicate control wells per microplate of both uninhibited reaction and no-proteasome background, and subsequently, IC50 values were determined by fitting the normalised data to the following four-parameter logistic model; y = a + (( b – a) / ( 1 + ( 10 ^ x / 10 ^ c ) ^ d ), where ‘a’ is the minimum, ‘b’ is […], ‘c’ is the IC50 and ‘d’ is […].
11. Cryo-EM of 20S Leishmania tarentolae proteasome a. Purification of 20S Leishmania tarentolae proteasome. […]

The test system of data set [8] is human proteasome catalytic subunits (THP-1 extracts). The data set is described as follows: Activity-based probe (UbiQ-018) labelling of THP-1 proteasome. The data set is classed as binding. The settings on record: human THP-1 extracts, 100 µM.
Data set [9] deals with L. donovani promastigotes. Kind of data set: microbe, parasite or virus in culture. In kind it is cell-based, Leishmania donovani. The settings on record: Leishmania donovani. The method, then: 9. Mode of action studies a. Cell lines and culture conditions […]
c. Generation of drug-resistant parasites […]
donovani in the continuous presence of this compound. Starting at a sub-lethal […]
After a total of 120 days in
Genomic DNA was harvested from three independently generated L. donovani resistant clones and an age match control, as previously described27. PCR was performed using Platinum PCR Supermix (Invitrogen), as per manufacturer’s […]
generated using primers SubunitB4FW and SubunitB4RV, then sequenced using primer SubunitB4FW (Table S6). To sequence the β5 subunit (LdBPK_361730.1), an […]
sequenced using primer SubunitB5FW. PCR amplification and DNA sequencing were performed in triplicate for each independently generated cell line. The Leishmania donovani BPK282A1 sequences of the two subunits were identified in TriTrypDB and […]
e. Generation of overexpression constructs and LdBOB transgenic cell lines The genes encoding the mutated versions of the β4 (LdBPK_360340.1) and the β5 […]
parasites, were synthesised (GeneArt, Thermo Fischer Scientific). The synthetic genes, flanked by BamHI sites were cloned into the equivalent site of pIR1-SAT. The accuracy of all assembled constructs was verified by sequencing.
Mid-log-phase L. donovani promastigotes (LdBOB) were transfected with overexpression constructs using the Human T-Cell Nucleofector kit and the Amaxa Nucleofector electroporator (program V-033). Following transfection, cells were […]
to appropriate drug selection (100 µg/mL nourseothricin). Cloned cell lines were […]
selection for one passage prior to experiments. […]

The mark [10] stands for this setting: L. donovani amastigotes in differentiated THP-1 cells, read-out: Intramacrophage EC50.
Setting [11] is: fasted simulated intestinal fluid (FaSSIF).

Structures are written as SMILES. Values after ≈ are worked out from the molar mass of the structure shown. “Also recorded” adds a separate entry of the source. Read-outs that look alike come from different tables or passages of the source.

Take `O=C(Nc1cccc(-c2nc3ncccc3o2)c1)c1ccco1` [Compound 1]: the solubility (in general, the concentration that dissolves in the medium under given conditions) in [1] came out at 58 µg/mL (≈ 190 µM). For the same compound, the EC50 (usually the concentration needed to bring the measured effect to its halfway point) in data set [2] (setting [10]) is 5700 nM; in the data set with THP-1 cells it was > 50000 nM; in the data set on Trypanosoma cruzi, 220 nM. Further, the CLint in data set [3] came out at 24 mL/min/g.

Consider `CC(C)C[C@H](NC(=O)[C@H](CCc1ccccc1)NC(=O)CN1CCOCC1)C(=O)N[C@@H](Cc1ccccc1)C(=O)N[C@@H](CC(C)C)C(=O)[C@@]1(C)CO1` [carfilzomib, reference compound], for which, in [4], the “inhibition of chymotrypsin-like activity, RES II vs WT lysates” value is “equal potency”.

For the compound `O=C(Nc1ccc(F)c(-c2cn3cc(N4CCOCC4)cnc3n2)c1)N1CCCC1` [Compound 6a], the solubility in [1] is 39 µg/mL (≈ 95 µM); in data set [6] (setting [11]), 6 µg/mL (≈ 14.6 µM). The results for the EC50 (in data set [2] (setting [10]); in the data set on THP-1 cells) were 600 nM and > 50000 nM, respectively. In addition, the “improvement of intramacrophage potency” value in data set [2] (relative to 5) is recorded as > 10 fold. Further, in data set [5], the AMES entry was “mutagenic in strain TA1537 when tested in the absence of S9-mix; also recorded: positive”. Further, the CLint in data set [3] is < 0.5 mL/min/g. In data set [6], the FaSSIF solubility entry is “poor solubility”.

As for `O=C(Nc1ccc(F)c(-c2cn3cc(-c4ccccc4)cnc3n2)c1)N1CCCC1` [Compound 6], the solubility in data set [1] is 8 µg/mL (≈ 19.9 µM); in [6] (setting [11]), 4 µg/mL (≈ 9.96 µM). For the same compound, the EC50 was 150 nM in [2] (setting [10]) and > 50000 nM in the data set with THP-1 cells. In data set [5], the AMES entry is listed as “not mutagenic; also recorded: negative”. Moreover, the CLint in [3] was 2.6 mL/min/g. Further, in data set [6], the FaSSIF solubility entry is recorded as “poor solubility”.

For `CC(C)C[C@H](NC(=O)[C@H](Cc1ccccc1)NC(=O)c1cnccn1)B(O)O` [bortezomib, reference compound], in data set [4], the “inhibition of chymotrypsin-like activity, RES II vs WT lysates” value is given as “equal potency”. Further, the “UbiQ-018 labelling of proteasome subunits” value in [7] (L. donovani WT extracts), in [7] (L. donovani-resistant RES II extracts) and in data set [8] was “prevents labeling of proteasome subunits in all extracts” throughout. Besides, the EC50 in data set [9] (RES I (compound 7-resistant clone)) turned out to be 28 ± 1.4 nM; in data set [9] (RES III (compound 7-resistant clone)), 32 ± 1.5 nM; in data set [9] (WT promastigotes), 31 ± 1.5 nM.

For `O=C(Nc1ccc(F)c(-c2cn3nc(N4CCOCC4)cnc3n2)c1)N1CCCC1` [Compound 7a], the concentration for a half-maximal effect (EC50) in data set [2] (THP-1, read-out: Intramacrophage EC50) was 410 nM; with THP-1 cells, > 50000 nM. For the same compound, in data set [5], the AMES entry is recorded as “not mutagenic; also recorded: negative”. In data set [3], the CLint is recorded as 0.91 mL/min/g. Moreover, the solubility was 24 µg/mL (≈ 58.3 µM) in the data set “physchem” and 13 µg/mL (≈ 31.6 µM) in data set [6].

On to `O=C(Nc1cccc(-c2cn3cccnc3n2)c1)c1ccco1` [Compound 2], for which, in data set [1], the solubility was ≥ 162 µg/mL. In addition, the figures for the concentration for a half-maximal effect (EC50) (in [2] (setting [10]); in the data set on THP-1 cells; in the data set on Trypanosoma cruzi) were 26000 nM, > 50000 nM and 930 nM, respectively. In addition, the CLint in data set [3] is given as 8.5 mL/min/g.
